The supplement of paper PMC10627819

What was measured:
B. subtilis 168 [1] = experiment: fitness (endpoint OD595 vs no drug) (fraction); higher = more growth
Outline: (§1)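 Cultures at OD595 0.01 were dispensed into 384-well plates in TSB, LB Lennox or CY and incubated at 37 °C. Every 30 min for 14 h, OD595 was read and corrected by the first reading. Fitness is the optical density at entry into stationary phase relative to the robust mean of no-drug control wells, capped at 1.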

S. aureus DSM 20231 [2] = experiment: as above
Outline: as §1

S. aureus Newman [3] = experiment: as above
Outline: as §1

S. pneumoniae D39V [4] = experiment: as above
Outline: as §1

B. subtilis 168 [5] = experiment: Bliss interaction score (quartile over a dose matrix) (fitness difference); higher = more antagonism (negative = synergy)
Outline: (§2)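 Each plate was normalised to the robust mean of its own no-drug wells, using OD595 at entry into stationary phase, with values capped at 1. This normalised growth is the fitness value. The Bliss score is the difference between observed and product-expected fitness, with single-drug fitness inferred from the combination data and quartiles taken over technical, biological and donor/recipient replicates.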

S. aureus DSM 20231 [6] = experiment: as above
Outline: as §2

S. aureus Newman [7] = experiment: as above
Outline: as §2

S. pneumoniae D39V [8] = experiment: as above
Outline: as §2
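For Bliss interaction score (quartile over a dose matrix) in this document: first quartile when negative (synergy) and third quartile when positive (antagonism).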

O=C(O[C@@H]1Cc2c(O)cc(O)cc2O[C@@H]1c1cc(O)c(O)c(O)c1)c1cc(O)c(O)c(O)c1 [EGCG] + Cc1onc(-c2ccccc2)c1C(=O)N[C@@H]1C(=O)N2[C@@H]1SC(C)(C)[C@@H]2C(=O)O [Oxacillin]
fitness
Conditions	first compound 6.25 µg/mL	first compound 12.5 µg/mL	first compound 25 µg/mL	first compound 50 µg/mL
B. subtilis 168 [1], partner 0.002 µg/mL	0.935	–	0.202	–
B. subtilis 168 [1], partner 0.004 µg/mL	0.924	0.538	0.205	–
B. subtilis 168 [1], partner 0.008 µg/mL	0.898	0.525	0.186	–
S. aureus DSM 20231 [2], partner 0.0156 µg/mL	–	0.645	0.582	0.62
S. aureus DSM 20231 [2], partner 0.0312 µg/mL	–	0.498	0.548	–
S. aureus DSM 20231 [2], partner 0.0625 µg/mL	–	0.442	0.393	0.34
S. aureus Newman [3], partner 0.0156 µg/mL	–	0.591	0.605	–
S. aureus Newman [3], partner 0.0312 µg/mL	–	0.624	0.681	–
S. aureus Newman [3], partner 0.0625 µg/mL	–	0.59	0.636	–
S. pneumoniae D39V [4], partner 0.005 µg/mL	–	0.989	0.973	≥ 1
S. pneumoniae D39V [4], partner 0.01 µg/mL	–	0.924	0.903	0.966
S. pneumoniae D39V [4], partner 0.02 µg/mL	–	0.929	0.947	0.923
S. pneumoniae D39V [4], partner 0.04 µg/mL	–	0.474	0.576	0.632

fitness, B. subtilis 168 [1], one replicate
Conditions	partner 0.0078 µg/mL	partner 0.0155 µg/mL	partner 0.031 µg/mL	partner 0.075 µg/mL	partner 0.15 µg/mL	partner 0.3 µg/mL
first compound 6.25 µg/mL	0.998	0.978	0.972	0.515	0.0556	0.0544
first compound 12.5 µg/mL	0.858	0.852	0.792	0.444	0.0247	0.0417
first compound 25 µg/mL	0.602	0.559	0.434	0.139	0.0233	0.024

Conditions	Bliss interaction score
B. subtilis 168 [5]	-0.0648
S. aureus DSM 20231 [6]	-0.0707
S. aureus Newman [7]	0.0991
S. pneumoniae D39V [8]	0.0942

COc1c(N2C[C@@H]3CCCN[C@@H]3C2)c(F)cc2c(=O)c(C(=O)O)cn(C3CC3)c12 [Moxifloxacin] + CC1=C\[C@@H](O)CC(=O)Cc2nc(co2)C(=O)N2CCC=C2C(=O)O[C@H](C(C)C)[C@H](C)/C=C/C(=O)NC\C=C\1 [Virginiamycin M1]
Conditions	fitness
B. subtilis 168 [1], first compound 0.0312 µg/mL, partner 0.0625 µg/mL	0.0441
B. subtilis 168 [1], first compound 0.0312 µg/mL, partner 0.125 µg/mL	0.0556
B. subtilis 168 [1], first compound 0.0312 µg/mL, partner 0.25 µg/mL	0.0499
B. subtilis 168 [1], first compound 0.0625 µg/mL, partner 0.0625 µg/mL	0.0365
B. subtilis 168 [1], first compound 0.0625 µg/mL, partner 0.125 µg/mL	0.0573
B. subtilis 168 [1], first compound 0.0625 µg/mL, partner 0.25 µg/mL	0.0434
B. subtilis 168 [1], first compound 0.125 µg/mL, partner 0.0625 µg/mL	0.044
B. subtilis 168 [1], first compound 0.125 µg/mL, partner 0.125 µg/mL	0.0517
B. subtilis 168 [1], first compound 0.125 µg/mL, partner 0.25 µg/mL	0.0468
B. subtilis 168 [1], first compound 2 µg/mL, partner 0.0625 µg/mL	0.0224
B. subtilis 168 [1], first compound 2 µg/mL, partner 0.125 µg/mL	0.0234
B. subtilis 168 [1], first compound 2 µg/mL, partner 0.25 µg/mL	0.0324
B. subtilis 168 [1], first compound 4 µg/mL, partner 0.0625 µg/mL	0.0209
B. subtilis 168 [1], first compound 4 µg/mL, partner 0.125 µg/mL	0.0242
B. subtilis 168 [1], first compound 4 µg/mL, partner 0.25 µg/mL	0.0192
B. subtilis 168 [1], first compound 8 µg/mL, partner 0.0625 µg/mL	0.0121
B. subtilis 168 [1], first compound 8 µg/mL, partner 0.125 µg/mL	0.0128
B. subtilis 168 [1], first compound 8 µg/mL, partner 0.25 µg/mL	0.0206
S. aureus DSM 20231 [2], first compound 0.0075 µg/mL, partner 0.0625 µg/mL	0.812
S. aureus DSM 20231 [2], first compound 0.0075 µg/mL, partner 0.125 µg/mL	0.901
S. aureus DSM 20231 [2], first compound 0.0075 µg/mL, partner 0.25 µg/mL	0.81
S. aureus DSM 20231 [2], first compound 0.015 µg/mL, partner 0.0625 µg/mL	0.702
S. aureus DSM 20231 [2], first compound 0.015 µg/mL, partner 0.125 µg/mL	0.72
S. aureus DSM 20231 [2], first compound 0.015 µg/mL, partner 0.25 µg/mL	0.776
S. aureus DSM 20231 [2], first compound 0.03 µg/mL, partner 0.0625 µg/mL	0.609
S. aureus DSM 20231 [2], first compound 0.03 µg/mL, partner 0.125 µg/mL	0.67
S. aureus DSM 20231 [2], first compound 0.03 µg/mL, partner 0.25 µg/mL	0.662
S. aureus Newman [3], first compound 0.0075 µg/mL, partner 0.0625 µg/mL	0.764
S. aureus Newman [3], first compound 0.0075 µg/mL, partner 0.125 µg/mL	0.762
S. aureus Newman [3], first compound 0.0075 µg/mL, partner 0.25 µg/mL	0.795
S. aureus Newman [3], first compound 0.015 µg/mL, partner 0.0625 µg/mL	0.545
S. aureus Newman [3], first compound 0.015 µg/mL, partner 0.125 µg/mL	0.556
S. aureus Newman [3], first compound 0.015 µg/mL, partner 0.25 µg/mL	0.517
S. aureus Newman [3], first compound 0.03 µg/mL, partner 0.0625 µg/mL	0.0697
S. aureus Newman [3], first compound 0.03 µg/mL, partner 0.125 µg/mL	0.0796
S. aureus Newman [3], first compound 0.03 µg/mL, partner 0.25 µg/mL	0.0787
S. pneumoniae D39V [4], first compound 0.0037 µg/mL, partner 2 µg/mL	0.802
S. pneumoniae D39V [4], first compound 0.005 µg/mL, partner 0.5 µg/mL	0.999
S. pneumoniae D39V [4], first compound 0.005 µg/mL, partner 1 µg/mL	≥ 1
S. pneumoniae D39V [4], first compound 0.005 µg/mL, partner 2 µg/mL	0.99
S. pneumoniae D39V [4], first compound 0.0075 µg/mL, partner 2 µg/mL	0.869
S. pneumoniae D39V [4], first compound 0.01 µg/mL, partner 0.5 µg/mL	≥ 1
S. pneumoniae D39V [4], first compound 0.01 µg/mL, partner 1 µg/mL	0.992
S. pneumoniae D39V [4], first compound 0.01 µg/mL, partner 2 µg/mL	0.979
S. pneumoniae D39V [4], first compound 0.015 µg/mL, partner 2 µg/mL	0.811
S. pneumoniae D39V [4], first compound 0.02 µg/mL, partner 0.5 µg/mL	0.981
S. pneumoniae D39V [4], first compound 0.02 µg/mL, partner 1 µg/mL	0.995
S. pneumoniae D39V [4], first compound 0.02 µg/mL, partner 2 µg/mL	0.963

one replicate
Conditions	fitness
S. aureus DSM 20231 [2], first compound 0.0075 µg/mL, partner 0.5 µg/mL	0.785
S. aureus DSM 20231 [2], first compound 0.0075 µg/mL, partner 1 µg/mL	0.81
S. aureus DSM 20231 [2], first compound 0.015 µg/mL, partner 0.5 µg/mL	0.787
S. aureus DSM 20231 [2], first compound 0.015 µg/mL, partner 1 µg/mL	0.793
S. aureus DSM 20231 [2], first compound 0.03 µg/mL, partner 0.5 µg/mL	0.693
S. aureus DSM 20231 [2], first compound 0.03 µg/mL, partner 1 µg/mL	0.734
S. aureus DSM 20231 [2], first compound 0.06 µg/mL, partner 0.0625 µg/mL	0.686
S. aureus DSM 20231 [2], first compound 0.06 µg/mL, partner 0.125 µg/mL	0.695
S. aureus DSM 20231 [2], first compound 0.06 µg/mL, partner 0.25 µg/mL	0.69
S. aureus DSM 20231 [2], first compound 0.12 µg/mL, partner 0.0625 µg/mL	0.462
S. aureus DSM 20231 [2], first compound 0.12 µg/mL, partner 0.125 µg/mL	0.471
S. aureus DSM 20231 [2], first compound 0.12 µg/mL, partner 0.25 µg/mL	0.46
S. aureus Newman [3], first compound 0.0075 µg/mL, partner 0.5 µg/mL	0.659
S. aureus Newman [3], first compound 0.0075 µg/mL, partner 1 µg/mL	0.758
S. aureus Newman [3], first compound 0.0075 µg/mL, partner 2 µg/mL	0.665
S. aureus Newman [3], first compound 0.015 µg/mL, partner 0.5 µg/mL	0.654
S. aureus Newman [3], first compound 0.015 µg/mL, partner 1 µg/mL	0.643
S. aureus Newman [3], first compound 0.015 µg/mL, partner 2 µg/mL	0.579
S. aureus Newman [3], first compound 0.03 µg/mL, partner 0.5 µg/mL	0.465
S. aureus Newman [3], first compound 0.03 µg/mL, partner 1 µg/mL	0.414
S. aureus Newman [3], first compound 0.03 µg/mL, partner 2 µg/mL	0.323
S. pneumoniae D39V [4], first compound 0.0037 µg/mL, partner 0.15 µg/mL	0.808
S. pneumoniae D39V [4], first compound 0.0037 µg/mL, partner 0.3 µg/mL	0.758
S. pneumoniae D39V [4], first compound 0.0037 µg/mL, partner 0.5 µg/mL	0.97
S. pneumoniae D39V [4], first compound 0.0037 µg/mL, partner 1 µg/mL	0.95
S. pneumoniae D39V [4], first compound 0.0075 µg/mL, partner 0.15 µg/mL	0.911
S. pneumoniae D39V [4], first compound 0.0075 µg/mL, partner 0.3 µg/mL	0.877
S. pneumoniae D39V [4], first compound 0.0075 µg/mL, partner 0.5 µg/mL	0.965
S. pneumoniae D39V [4], first compound 0.0075 µg/mL, partner 1 µg/mL	0.934
S. pneumoniae D39V [4], first compound 0.015 µg/mL, partner 0.15 µg/mL	0.832
S. pneumoniae D39V [4], first compound 0.015 µg/mL, partner 0.3 µg/mL	0.843
S. pneumoniae D39V [4], first compound 0.015 µg/mL, partner 0.5 µg/mL	0.933
S. pneumoniae D39V [4], first compound 0.015 µg/mL, partner 1 µg/mL	0.873

Conditions	Bliss interaction score
B. subtilis 168 [5]	-0.0191
S. aureus DSM 20231 [6]	-0.0567
S. aureus Newman [7]	-0.0536
S. pneumoniae D39V [8]	0.065
